Assay results published in PubChem BioAssay AID720603 (Broad Institute, 2013).
Results filed as inconclusive are left out.

Tested on: C2C12 mouse myoblast viability, CellTiter-Glo ATP, 8-48 h
Assay: cytotoxicity in mouse C2C12 myoblasts – cell-based, CellTiter-Glo ATP luminescence, 8/24/48 h, dry powder, cytotoxicity control for HRAS target identification, dose response (AID 720603)

SMILES	AC50 (measured here: 8 h treatment) [nM]	AC50 (measured here: 24 h treatment) [nM]	AC50 (measured here: 48 h treatment) [nM]
COc1ccc(N(C(=O)CCl)C(C(=O)NCCc2ccccc2)c2cccs2)cc1Cl (stereo unspecified)	17800	108	311
CC(C)(C)OC(=O)NCCOCCOCCOc1ccc(N(C(=O)CCl)C(C(=O)NCCc2ccccc2)c2cccs2)cc1Cl (stereo unspecified)	1380	161	388
C#CCCCC(=O)NCCOCCOCCOc1ccc(N(C(=O)CCl)C(C(=O)NCCc2ccccc2)c2cccs2)cc1Cl (stereo unspecified)		1330	2620
COC(=O)c1ccc([C@@H]2c3[nH]c4ccccc4c3C[C@@H](C(=O)OC)N2C(=O)CCl)cc1	597	21.2	80.6
